Earlier results in article PMC9811530 (Experimental and Clinical Endocrinology & Diabetes, 2022).
Where two headings read alike, the source gives them in different places.

What was measured:
[1] = target: 11beta-HSD1 in the liver (Homo sapiens, UniProt P28845); conditions: cited from earlier work
[2] = system: 11beta-HSD1 in AT; conditions: single dose, 24 h after dosing; cited from earlier work

Sequence of 11beta-HSD1 in the liver (P28845 whole entry): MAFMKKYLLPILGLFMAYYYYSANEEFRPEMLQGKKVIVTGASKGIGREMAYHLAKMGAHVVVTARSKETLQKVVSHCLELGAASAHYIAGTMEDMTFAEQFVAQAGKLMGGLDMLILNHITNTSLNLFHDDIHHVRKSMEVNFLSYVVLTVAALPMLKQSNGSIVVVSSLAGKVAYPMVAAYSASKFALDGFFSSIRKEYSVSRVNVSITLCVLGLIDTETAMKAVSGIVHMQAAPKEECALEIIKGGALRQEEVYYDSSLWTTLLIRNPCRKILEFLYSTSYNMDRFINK

## CCCSc1nc(N2CCC[C@@H](CC(=O)O)C2)ccc1C(=O)NC1CCCCC1 [AZD4017]
[1]; after 9 days
  maximum decrease of the (aTHF+THF)/THE ratio: 92%

## CC(C)[C@]1(C)SC(=N[C@H]2C[C@@H]3CC[C@H]2C3)NC1=O [AMG 221]
[2]
  11beta-HSD1 inhibition in AT: > 90%

## N#Cc1ccc(-c2ccc(S(=O)(=O)Nc3cccc(N)n3)cc2)cc1 [PF-915275]
[1]; after 14 days of treatment
  maximum decrease of the (aTHF+THF)/THE ratio: 26%

## C[C@@H](c1ccc(-c2ccn(C)c(=O)c2)cc1)N1CC[C@](CC(C)(C)O)(c2ccccc2)OC1=O [BI 135585]
[2]
  inhibition of 11beta-HSD1 in AT: 90%
